# Experimental data taken from PubChem BioAssay (NCI).
#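 How tested: cells in 96-well plates exposed to compound for 48 hours at five concentrations. At the GI50, growth is halved. TGI is the concentration that stops growth completely.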
# What was measured:
# Experiment in all cases: growth of human tumour cells (NCI), 48 h
# 786-0 renal = test system: 786-0 renal
# A498 renal = test system: A498 renal
# A549 NSCLC = test system: A549 NSCLC
# ACHN renal = test system: ACHN renal
# BT-549 breast = test system: BT-549 breast
# CAKI-1 renal = test system: CAKI-1 renal
# CCRF-CEM leukemia = test system: CCRF-CEM leukemia
# COLO 205 colon = test system: COLO 205 colon
# DU-145 prostate = test system: DU-145 prostate
# HCC-2998 colon = test system: HCC-2998 colon
# HCT-116 colon = test system: HCT-116 colon
# HCT-15 colon = test system: HCT-15 colon
# HL-60(TB) leukemia = test system: HL-60(TB) leukemia
# HOP-62 NSCLC = test system: HOP-62 NSCLC
# HOP-92 NSCLC = test system: HOP-92 NSCLC
# HS 578T breast = test system: HS 578T breast
# HT29 colon = test system: HT29 colon
# IGROV1 ovarian = test system: IGROV1 ovarian
# K-562 leukemia = test system: K-562 leukemia
# KM12 colon = test system: KM12 colon
# LOX IMVI melanoma = test system: LOX IMVI melanoma
# M14 melanoma = test system: M14 melanoma
# MALME-3M melanoma = test system: MALME-3M melanoma
# MCF7 breast = test system: MCF7 breast
# MDA-MB-231 breast = test system: MDA-MB-231 breast
# MDA-MB-435 = test system: MDA-MB-435
# MOLT-4 leukemia = test system: MOLT-4 leukemia
# NCI-H226 lung = test system: NCI-H226 lung
# NCI-H23 lung = test system: NCI-H23 lung
# NCI-H460 lung = test system: NCI-H460 lung
# NCI-H522 lung = test system: NCI-H522 lung
# NCI/ADR-RES ovarian = test system: NCI/ADR-RES ovarian
# OVCAR-3 ovarian = test system: OVCAR-3 ovarian
# OVCAR-4 ovarian = test system: OVCAR-4 ovarian
# OVCAR-5 ovarian = test system: OVCAR-5 ovarian
# OVCAR-8 ovarian = test system: OVCAR-8 ovarian
# PC-3 prostate = test system: PC-3 prostate
# RPMI-8226 leukemia = test system: RPMI-8226 leukemia
# RXF 393 renal = test system: RXF 393 renal
# SF-268 CNS = test system: SF-268 CNS
# SF-295 CNS = test system: SF-295 CNS
# SF-539 CNS = test system: SF-539 CNS
# SK-MEL-2 melanoma = test system: SK-MEL-2 melanoma
# SK-MEL-28 melanoma = test system: SK-MEL-28 melanoma
# SK-MEL-5 melanoma = test system: SK-MEL-5 melanoma
# SK-OV-3 ovarian = test system: SK-OV-3 ovarian
# SN12C renal = test system: SN12C renal
# SNB-19 CNS = test system: SNB-19 CNS
# SNB-75 CNS = test system: SNB-75 CNS
# SR leukemia = test system: SR leukemia
# SW-620 colon = test system: SW-620 colon
# T-47D breast = test system: T-47D breast
# TK-10 renal = test system: TK-10 renal
# U251 CNS = test system: U251 CNS
# UACC-257 melanoma = test system: UACC-257 melanoma
# UACC-62 melanoma = test system: UACC-62 melanoma
# UO-31 renal = test system: UO-31 renal
structure (smiles),measurement,setting,value
O=C1NC(=NCCc2ccc(F)cc2)S/C1=C\c1ccc2ncccc2c1,GI50,786-0 renal,> 25 µM
same,TGI,786-0 renal,> 25 µM
same,GI50,A498 renal,> 25 µM
same,TGI,A498 renal,> 25 µM
same,GI50,A549 NSCLC,> 25 µM
same,TGI,A549 NSCLC,> 25 µM
same,GI50,ACHN renal,> 25 µM
same,TGI,ACHN renal,> 25 µM
same,GI50,BT-549 breast,> 25 µM
same,TGI,BT-549 breast,> 25 µM
same,GI50,CAKI-1 renal,> 25 µM
same,TGI,CAKI-1 renal,> 25 µM
same,GI50,CCRF-CEM leukemia,> 25 µM
same,TGI,CCRF-CEM leukemia,> 25 µM
same,GI50,COLO 205 colon,> 25 µM
same,TGI,COLO 205 colon,> 25 µM
same,GI50,DU-145 prostate,> 25 µM
same,TGI,DU-145 prostate,> 25 µM
same,GI50,HCC-2998 colon,> 25 µM
same,TGI,HCC-2998 colon,> 25 µM
same,GI50,HCT-116 colon,13.8 µM
same,TGI,HCT-116 colon,> 25 µM
same,GI50,HCT-15 colon,> 25 µM
same,TGI,HCT-15 colon,> 25 µM
same,GI50,HL-60(TB) leukemia,> 25 µM
same,TGI,HL-60(TB) leukemia,> 25 µM
same,GI50,HOP-62 NSCLC,> 25 µM
same,TGI,HOP-62 NSCLC,> 25 µM
same,GI50,HOP-92 NSCLC,> 25 µM
same,TGI,HOP-92 NSCLC,> 25 µM
same,GI50,HS 578T breast,> 25 µM
same,TGI,HS 578T breast,> 25 µM
same,GI50,HT29 colon,> 25 µM
same,TGI,HT29 colon,> 25 µM
same,GI50,IGROV1 ovarian,> 25 µM
same,TGI,IGROV1 ovarian,> 25 µM
same,GI50,K-562 leukemia,> 25 µM
same,TGI,K-562 leukemia,> 25 µM
same,GI50,KM12 colon,> 25 µM
same,TGI,KM12 colon,> 25 µM
same,GI50,LOX IMVI melanoma,> 25 µM
same,TGI,LOX IMVI melanoma,> 25 µM
same,GI50,M14 melanoma,> 25 µM
same,TGI,M14 melanoma,> 25 µM
same,GI50,MALME-3M melanoma,> 25 µM
same,TGI,MALME-3M melanoma,> 25 µM
same,GI50,MCF7 breast,> 23.1 µM
same,TGI,MCF7 breast,> 25 µM
same,GI50,MDA-MB-231 breast,> 25 µM
same,TGI,MDA-MB-231 breast,> 25 µM
same,GI50,MDA-MB-435,> 25 µM
same,TGI,MDA-MB-435,> 25 µM
same,GI50,MOLT-4 leukemia,> 25 µM
same,TGI,MOLT-4 leukemia,> 25 µM
same,GI50,NCI-H226 lung,> 25 µM
same,TGI,NCI-H226 lung,> 25 µM
same,GI50,NCI-H23 lung,> 25 µM
same,TGI,NCI-H23 lung,> 25 µM
same,GI50,NCI-H460 lung,> 25 µM
same,TGI,NCI-H460 lung,> 25 µM
same,GI50,NCI-H522 lung,> 25 µM
same,TGI,NCI-H522 lung,> 25 µM
same,GI50,NCI/ADR-RES ovarian,> 25 µM
same,TGI,NCI/ADR-RES ovarian,> 25 µM
same,GI50,OVCAR-3 ovarian,> 25 µM
same,TGI,OVCAR-3 ovarian,> 25 µM
same,GI50,OVCAR-4 ovarian,> 25 µM
same,TGI,OVCAR-4 ovarian,> 25 µM
same,GI50,OVCAR-5 ovarian,> 25 µM
same,TGI,OVCAR-5 ovarian,> 25 µM
same,GI50,OVCAR-8 ovarian,> 25 µM
same,TGI,OVCAR-8 ovarian,> 25 µM
same,GI50,PC-3 prostate,> 25 µM
same,TGI,PC-3 prostate,> 25 µM
same,GI50,RPMI-8226 leukemia,> 25 µM
same,TGI,RPMI-8226 leukemia,> 25 µM
same,GI50,RXF 393 renal,> 25 µM
same,TGI,RXF 393 renal,> 25 µM
same,GI50,SF-268 CNS,> 25 µM
same,TGI,SF-268 CNS,> 25 µM
same,GI50,SF-295 CNS,> 25 µM
same,TGI,SF-295 CNS,> 25 µM
same,GI50,SF-539 CNS,> 25 µM
same,TGI,SF-539 CNS,> 25 µM
same,GI50,SK-MEL-2 melanoma,> 25 µM
same,TGI,SK-MEL-2 melanoma,> 25 µM
same,GI50,SK-MEL-28 melanoma,> 25 µM
same,TGI,SK-MEL-28 melanoma,> 25 µM
same,GI50,SK-MEL-5 melanoma,> 25 µM
same,TGI,SK-MEL-5 melanoma,> 25 µM
same,GI50,SK-OV-3 ovarian,> 25 µM
same,TGI,SK-OV-3 ovarian,> 25 µM
same,GI50,SN12C renal,> 25 µM
same,TGI,SN12C renal,> 25 µM
same,GI50,SNB-19 CNS,> 25 µM
same,TGI,SNB-19 CNS,> 25 µM
same,GI50,SNB-75 CNS,> 25 µM
same,TGI,SNB-75 CNS,> 25 µM
same,GI50,SR leukemia,7.09 µM
same,TGI,SR leukemia,> 25 µM
same,GI50,SW-620 colon,> 23.3 µM
same,TGI,SW-620 colon,> 25 µM
same,GI50,T-47D breast,> 25 µM
same,TGI,T-47D breast,> 25 µM
same,GI50,TK-10 renal,> 25 µM
same,TGI,TK-10 renal,> 25 µM
same,GI50,U251 CNS,> 25 µM
same,TGI,U251 CNS,> 25 µM
same,GI50,UACC-257 melanoma,> 25 µM
same,TGI,UACC-257 melanoma,> 25 µM
same,GI50,UACC-62 melanoma,> 25 µM
same,TGI,UACC-62 melanoma,> 25 µM
same,GI50,UO-31 renal,> 25 µM
same,TGI,UO-31 renal,> 25 µM
